Experimental data published in patent US20250327046A1, “ROLE OF POLYPHOSPHATES IN NEUROLOGICAL DISORDERS” (UNIVERSITY OF MASSACHUSETTS, priority 2021, published 2025).

System: mutSOD1 mice
Assay: Survival of mutSOD1 mice (mouse model of ALS)
Type: in vivo
Details: FIG. 10B, polyP neutralizing cationic polyamine
From the text: Hemizygous transgenic mice carrying mutant human SOD1^G93A (high copy number; B6SJL; Cat. #002726), wild-type human SOD1^WT (B6SJL; Cat. #002297) and TARDBP^A315T (C57BL/6J; Cat. #010700) transgenes were obtained from Jackson Laboratories (Bar Harbor, Maine, USA). Hemizygous transgenic mice (background B6SJLF/J) carrying C9ORF72 hexanucleotide repeats (˜500) in intron were generated by Robert Brown (Peters et al., 2015). All mice were maintained and bred at the animal facility of Universidad Andres Bello. The presence of the human SOD1transgene, the human TARDBP transgene and the human C9ORF72 transgene were validated by polymerase chain reaction as previously described. Transgenic males were crossed with WT females (B6SJL or C57BL/6J) from the corresponding background; these non-transgenic littermates (NTg) were used as internal controls for all experiments. The SOD1^G93A (mutSOD1) mice, but not the hSOD1WT (wtSOD1) mice, develop signs of neuromuscular deficits (tremor of the legs and loss of extension reflex of the hind paws) starting at 3 months of age and have an average lifespan of 133-147 days. […]
In this Example, polyP neutralizing molecules including a dendrimer (e.g., G3-PAMAM-NH2) and a cationic polyamine (e.g., spermidine) were evaluated as potential therapies for neurological disorders using a mouse model of ALS. […]

NCCCCNCCCN [spermidine]
survival of mutSOD1 mice (in words): prolonged survival
